Experimental data: ChEMBL document CHEMBL3124749, “Synthesis, biological evaluation and molecular modeling study of novel tacrine-carbazole hybrids as potential multifunctional agents for the treatment of Alzheimer's disease” (Eur J Med Chem, 2014)
Activity calls are given as the source filed them. No cut-off for these calls is given here.

Columns and labels:
[1] = system: C6; experiment: cells; settings: Rattus norvegicus, C6, 24 h, read-out: Activity
Description: Neuroprotective activity against Abeta1-42 peptide-induced neurotoxicity in rat C6 cells assessed as cell viability at 100 uM after 24 hrs by MTT assay

[2] = molecular target: Cholinesterase (Homo sapiens, UniProt P06276)
Chain of Cholinesterase (P06276 whole entry): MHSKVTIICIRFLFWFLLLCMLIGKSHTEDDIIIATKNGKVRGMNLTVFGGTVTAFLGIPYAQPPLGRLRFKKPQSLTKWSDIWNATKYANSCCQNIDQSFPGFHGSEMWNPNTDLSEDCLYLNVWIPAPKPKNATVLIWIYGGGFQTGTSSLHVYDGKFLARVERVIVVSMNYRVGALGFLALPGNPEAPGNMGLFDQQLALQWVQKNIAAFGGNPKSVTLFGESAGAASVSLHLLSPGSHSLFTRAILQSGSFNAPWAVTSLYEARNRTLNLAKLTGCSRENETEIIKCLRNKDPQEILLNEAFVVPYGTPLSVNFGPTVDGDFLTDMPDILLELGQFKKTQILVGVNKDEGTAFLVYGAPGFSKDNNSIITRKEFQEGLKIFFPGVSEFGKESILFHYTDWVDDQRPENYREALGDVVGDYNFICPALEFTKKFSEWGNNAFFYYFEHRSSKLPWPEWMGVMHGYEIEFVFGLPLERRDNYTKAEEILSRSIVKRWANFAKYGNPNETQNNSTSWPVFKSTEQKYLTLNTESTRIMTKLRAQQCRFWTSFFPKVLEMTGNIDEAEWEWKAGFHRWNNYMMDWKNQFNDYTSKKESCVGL
Description: Inhibition of BuChE in human serum using butyrylthiocholine iodide as substrate measured every 30s for 5 mins by Ellman's spectrophotometric method

[3] = system: Mus musculus; experiment: Inhibition of scopolamine-induced cognitive deficit in ICR mouse assessed as time spent swimming in Q1 quadrant at 50 micromol/kg, ip administered 1 hr prior to scopolamine challenge measured after 30 mins by morris water maze test (reference value: 11.76 +/-0.49s); assay type: functional
[4] = system: Mus musculus; experiment: Inhibition of scopolamine-induced cognitive deficit in ICR mouse assessed as spontaneous alternation behaviour at 50 micromol/kg, ip administered 1 hr prior to scopolamine challenge measured after 30 mins by Y-maze test (reference value: 40.22 +/-3.54%); assay type: functional; parameters: scale not given: the % may be the effect or the level left
[5] = system: NG108-15; experiment: cells; settings: Murinae, NG108-15, read-out: Activity
Description: Neuroprotective activity against H2O2-induced oxidative stress in mouse/rat NG108-15 cells assessed as cell viability at 100 uM incubated for 2 hrs prior to H2O2 challenge for 2 hrs by MTT assay

[6] = system: Mus musculus; experiment: Inhibition of scopolamine-induced cognitive deficit in ICR mouse assessed as spontaneous alternation behaviour at 25 micromol/kg, ip administered 1 hr prior to scopolamine challenge measured after 30 mins by Y-maze test (reference value: 40.22 +/-3.54%); assay type: functional; parameters: scale not given: the % may be the effect or the level left
[7] = system: Mus musculus; experiment: Inhibition of scopolamine-induced cognitive deficit in ICR mouse assessed as time spent swimming in Q1 quadrant at 25 micromol/kg, ip administered 1 hr prior to scopolamine challenge measured after 30 mins by morris water maze test (reference value: 11.76 +/-0.49s); assay type: functional
[8] = system: NG108-15; experiment: Neuroprotective activity against H2O2-induced oxidative stress in mouse/rat NG108-15 cells assessed as increase in cell viability at 1 uM incubated for 2 hrs prior to H2O2 challenge for 2 hrs by MTT assay; assay type: functional, cell-based
[9] = system: NG108-15; experiment: Neuroprotective activity against H2O2-induced oxidative stress in mouse/rat NG108-15 cells assessed as increase in cell viability at 10 uM incubated for 2 hrs prior to H2O2 challenge for 2 hrs by MTT assay; assay type: functional, cell-based

Compound	viability at 100 µM [1] [%]	IC50 [2] [µM]	Time [3] [s]	Activity [4] [%]	viability at 100 µM [5] [%]	Activity [6] [%]	Time [7] [s]	Activity [8]	Activity [9]
COc1ccc2c(c1)[nH]c1c(CC=C(C)C)c(O)c(/C=N/CCCCCNc3c4c(nc5ccccc35)CCCC4)cc12	66.3	52.1	17.86	59.8	78.4	53.88	17.21	Active	–
CC(C)=CCc1c(O)c(C=O)cc2c1[nH]c1ccccc12 [HEPTAPHYLLINE]	–	> 100	–	–	59.8	–	–	–	–
COc1ccc2c(c1)[nH]c1c(CC=C(C)C)c(O)c(C=O)cc12	–	> 100	–	–	65.5	–	–	–	–
CC(C)=CCc1c(O)c(/C=N/CCCCCNc2c3c(nc4ccccc24)CCCC3)cc2c1[nH]c1ccccc12	59.4	19.4	–	–	68.8	–	–	–	Active
COc1ccc2c(c1)[nH]c1c(CC=C(C)C)c(O)c(/C=N/CCCNc3c4c(nc5ccccc35)CCCC4)cc12	63	–	–	–	74.7	–	–	Active	–
